From patent US7988958B2, “Enterococcus and Streptococcus strains and bacteriocins” (The United States of America as represented by the …, priority 2005, dated 2011)

Experiments:
Assay in all cases: MIC of purified bacteriocins and antibiotic by Spot Test
Type in all cases: cell-based
Staphylococcus aureus = conditions: S. aureus; 24 hours at 37° C., aerobic
Procedure: (§1) The minimal inhibiting concentrations (MICs) of bacteriocins 760 and 50-52 and Methicillin were determined by Spot Test. Various concentrations of purified bacteriocins (μg/ml) in a volume of 10 μl was added to cultures of Staphylococcus aureus, Staphylococcus epidermidis, Pseudomonas aeruginosa, and Helicobacter pylori. The cultures were incubated for about 24 hours at about 37° C. under aerobic conditions for all but Helicobacter pylori which was incubated under microaerobic conditions.

[1] = test system: Staphylococcus epidermidis; conditions: S. epidermidis; 24 hours at 37° C., aerobic
Procedure: as §1

Pseudomonas aeruginosa = conditions: P. aeruginosa; 24 hours at 37° C., aerobic
Procedure: as §1

Helicobacter pylori = conditions: H. pylori; 24 hours at 37° C., microaerobic
Procedure: as §1

COc1cccc(OC)c1C(=O)N[C@@H]1C(=O)N2[C@@H]1SC(C)(C)[C@@H]2C(=O)O [Methicillin, reference compound]
MIC of purified Bacteriocins and Antibiotic (Staphylococcus aureus): 52.5 µg/mL | MIC of purified Bacteriocins and Antibiotic [1]: 64.8 µg/mL | MIC of purified Bacteriocins and Antibiotic (Pseudomonas aeruginosa): 78.4 µg/mL | MIC of purified Bacteriocins and Antibiotic (Helicobacter pylori): 93.8 µg/mL
